Laboratory results as given in PMC11156954, “Inhibition and transport mechanisms of the ABC transporter hMRP5” (Nature Communications, 2024).
Entries after “also recorded” stand apart in the source; their conditions may differ. No end group written: not given here.

Key:
hMRP5-Δ1-94 [1] = biological target: T1, hMRP5-Δ1-94 (Homo sapiens, UniProt O15440); experiment: MST binding assay, hMRP5-Δ1-94; settings: MST, digitonin-purified hMRP5-Δ1-94, 15 min at room temperature
T1 construct: The codon-optimized full-length human ABCC5 gene encoding the MRP5 protein (UniProt ID: O15440); 8xHis (C); 2xstrep (C); made in house; host or cells: HEK293F
Method: We monitored the binding of different peptides to digitonin-purified hMRP5-Δ1-94-8xHis by MST assay (Monolith NT). HEPES buffer was used to replace Tris buffer during protein purification in the MST assay. The purified protein was mixed with RED-tris-NTA 2nd Generation dye (NanoTemper, MO-L018). Next, serially diluted peptides were mixed with the labeled protein. The mixtures were incubated for 15 min at room temperature, then the capillaries were loaded and the samples were assessed at 3% LED/excitation power and medium MST power. All peptides used in this study were synthesized in GL Biochem (Shanghai). The peptide sequence is provided as Source Data 5. The MST data were analyzed with MO.Affinity Analysis software.

hMRP5-Δ1-94 [2] = biological target: T1, hMRP5-Δ1-94; experiment: cryo-EM of the reconstituted peptide complex; type: binding; settings: peptide and hMRP5-Δ1-94 at 2:1 ratio, on ice, 1 h; inward-open complex
Method: To assess if D35C-E75C can structurally block the transport pathway, we incubated it with hMRP5-Δ1-94 at a 2:1 ratio for in vitro reconstitution. The resulting high-resolution structure of the reconstituted complex maintained an inward-open conformation with both NBDs separated (Fig. 4c and Supplementary Fig. 7a–d). […] Given its ability to effectively occlude the binding pocket, we termed the D35C-E75C peptide MRP5 potential peptide inhibitor (M5PI).
Freshly purified MRP5 protein was concentrated to ~5 mg/ml. Then, 5 μl proteins were added to the freshly glow-discharged (0.39 mBar air, 15 mA, 50 s) holey carbon grid (Quantifoil Au R1.2/1.3, 300 mesh). The grids were plunge-frozen in liquid ethane using an FEI Vitrobot Mark IV (Thermo Fisher Scientific) under the following conditions: waiting time, 11 s; blot time, 4 s; blot force, −2; temperature, 10 °C; and humidity, 100%. Next, the grids were transferred to and stored in liquid nitrogen until data acquisition. For the peptide M5PI-bound complex, the peptide and hMRP5-Δ1-94 were incubated together on ice at a ratio of 2:1 for 1 h before vitrification. […]
The single-particle analysis procedures for all states are summarized in the supplementary information (Supplementary Figs. 1, 2, 4, 5, 7 and 8). […] The overall resolution of the final map was determined by the 0.143 criterion of the gold-standard Fourier shell correlation. […]

T1 sequence (O15440 95-1437 limits assumed, stated change not applied): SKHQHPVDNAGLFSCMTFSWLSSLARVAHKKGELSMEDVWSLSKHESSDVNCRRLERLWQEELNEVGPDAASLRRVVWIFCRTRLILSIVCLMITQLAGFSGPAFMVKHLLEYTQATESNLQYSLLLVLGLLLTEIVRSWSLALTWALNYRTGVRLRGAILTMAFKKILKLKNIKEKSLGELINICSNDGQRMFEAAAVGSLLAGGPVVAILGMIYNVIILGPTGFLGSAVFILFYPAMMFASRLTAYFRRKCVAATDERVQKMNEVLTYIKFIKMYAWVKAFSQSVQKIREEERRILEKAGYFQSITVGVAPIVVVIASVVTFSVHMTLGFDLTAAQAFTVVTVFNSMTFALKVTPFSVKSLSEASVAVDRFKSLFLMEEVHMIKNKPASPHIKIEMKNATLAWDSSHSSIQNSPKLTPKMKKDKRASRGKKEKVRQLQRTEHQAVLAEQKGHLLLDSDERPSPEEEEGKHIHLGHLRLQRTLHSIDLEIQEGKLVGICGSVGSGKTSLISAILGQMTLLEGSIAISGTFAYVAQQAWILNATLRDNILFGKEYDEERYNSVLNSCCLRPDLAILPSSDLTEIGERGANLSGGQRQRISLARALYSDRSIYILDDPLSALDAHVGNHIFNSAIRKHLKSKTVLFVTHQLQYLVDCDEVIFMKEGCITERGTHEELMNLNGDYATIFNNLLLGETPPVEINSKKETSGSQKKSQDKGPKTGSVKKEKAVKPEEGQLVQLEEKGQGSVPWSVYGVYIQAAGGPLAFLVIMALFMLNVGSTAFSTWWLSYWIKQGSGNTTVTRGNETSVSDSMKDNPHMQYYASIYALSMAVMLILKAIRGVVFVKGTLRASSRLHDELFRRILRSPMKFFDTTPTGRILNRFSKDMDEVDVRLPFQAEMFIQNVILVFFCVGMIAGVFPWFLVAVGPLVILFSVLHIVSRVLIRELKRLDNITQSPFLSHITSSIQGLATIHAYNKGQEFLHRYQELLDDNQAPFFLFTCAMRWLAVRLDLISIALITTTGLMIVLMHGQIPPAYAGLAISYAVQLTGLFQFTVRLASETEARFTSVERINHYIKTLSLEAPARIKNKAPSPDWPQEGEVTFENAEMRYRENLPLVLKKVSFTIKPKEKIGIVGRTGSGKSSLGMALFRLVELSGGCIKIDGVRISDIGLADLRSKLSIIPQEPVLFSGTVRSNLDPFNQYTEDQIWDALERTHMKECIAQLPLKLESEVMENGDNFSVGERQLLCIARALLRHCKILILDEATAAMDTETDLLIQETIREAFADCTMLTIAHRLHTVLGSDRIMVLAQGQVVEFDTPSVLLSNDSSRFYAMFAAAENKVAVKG

Sequence: CSKFRRTRPLECQDALETAARAEGLSLDASMHSQLRILDEC (cysteines drawn unpaired) [M5PI]
- binding affinity to hMRP5, in words (hMRP5-Δ1-94 [1]): stronger hMRP5 affinity than selected anticancer drugs
- binding affinity to hMRP5, in words (hMRP5-Δ1-94 [1]; listed as Cys35-Cys75 peptide): higher affinity for hMRP5 compared to the original Asp35-Glu75 peptide
- binding affinity to hMRP5, in words (hMRP5-Δ1-94 [1]; listed as D35C-E75C): highest affinity for hMRP5 among these peptides; also recorded: higher binding affinity to hMRP5 than the well-studied substrate doxorubicin and inhibitor trequinsin
- EM density of bound peptide (hMRP5-Δ1-94 [2]): clear EM density for the bound D35C-E75C peptide in the central cavity
